The values below come from ChEMBL document CHEMBL1158028, “Triterpene saponins from Eryngium campestre” (J Nat Prod, 2006).

Experiment [1] is described as follows: Cytotoxicity against human HCT 116 cells by MTT assay. Format: functional, cell-based. A general note: Tetrazolium dyes change colour on reduction, which living cells bring about.
The test system of the next experiment is HT-29. The experiment in a line: Cytotoxicity against human HT-29 cells by MTT assay. In kind it is functional, cell-based.

Values after ≈ are worked out from the molar mass of the structure shown.

Regarding `CC(C)=CC(=O)O[C@H]1CC(C)(C)C[C@H]2C3=CC[C@@H]4[C@@]5(C)CC[C@H](O[C@@H]6O[C@H](C(=O)O)[C@@H](O[C@H]7O[C@H](C)[C@@H](O)[C@H](O)[C@@H]7O)[C@H](O)[C@H]6O[C@@H]6O[C@H](CO)[C@@H](O)[C@H](O)[C@H]6O)C(C)(C)[C@@H]5CC[C@@]4(C)[C@]3(C)[C@@H](O)[C@@H](O)[C@@]12CO`, the 50% inhibitory concentration (IC50) (in experiment [1]; with HT-29) was 40 µg/mL (≈ 37.8 µM) each time.

Take `C/C=C(/C)C(=O)O[C@H]1[C@H](O)C(C)(C)C[C@H]2C3=CC[C@@H]4[C@@]5(C)CC[C@H](O[C@@H]6O[C@H](C(=O)O)[C@@H](O[C@@H]7O[C@@H](C)[C@H](O)[C@@H](O)[C@H]7O)[C@H](O)[C@H]6O[C@H]6O[C@@H](CO)[C@H](O)[C@@H](O)[C@@H]6O)C(C)(C)[C@@H]5CC[C@@]4(C)[C@]3(C)[C@@H](O)[C@@H](O)[C@]21CO`: the half-maximal inhibitory concentration (IC50) (in experiment [1]; with HT-29) was greater than 100 µg/mL throughout.

With `CC(C)=CC(=O)O[C@H]1CC(C)(C)C[C@H]2C3=CC[C@@H]4[C@@]5(C)CC[C@H](O[C@@H]6O[C@H](C(=O)O)[C@@H](O)[C@H](O)[C@H]6O[C@H]6O[C@H](C)[C@@H](O)[C@H](O)[C@@H]6O)C(C)(C)[C@@H]5CC[C@@]4(C)[C@]3(C)[C@@H](O)[C@@H](O)[C@@]12CO`, the IC50 (in experiment [1]; in the experiment with HT-29) was 40 µg/mL (≈ 44.7 µM) each time.

For `C/C=C(/C)C(=O)O[C@H]1[C@H](O)C(C)(C)C[C@H]2C3=CC[C@@H]4[C@@]5(C)CC[C@H](O[C@@H]6O[C@H](C(=O)O)[C@@H](O)[C@H](O)[C@H]6O[C@H]6O[C@H](C)[C@@H](O)[C@H](O)[C@@H]6O)C(C)(C)[C@@H]5CC[C@@]4(C)[C@]3(C)[C@@H](O)[C@@H](O)[C@]21COC(C)=O`, the IC50 (in experiment [1]; with HT-29) was greater than 100 µg/mL each time.

With `C/C=C(/C)C(=O)O[C@H]1[C@H](OC(C)=O)C(C)(C)C[C@H]2C3=CC[C@@H]4[C@@]5(C)CC[C@H](O[C@@H]6O[C@H](C(=O)O)[C@@H](O)[C@H](O)[C@H]6O[C@H]6O[C@H](C)[C@@H](O)[C@H](O)[C@@H]6O)C(C)(C)[C@@H]5CC[C@@]4(C)[C@]3(C)[C@@H](O)[C@@H](O)[C@]21CO`, the IC50 (in experiment [1]; in the experiment with HT-29) was 40 µg/mL (≈ 42 µM) throughout.

As to `CC(=O)OC1[C@H](OC(=O)C=C(C)C)[C@]2(CO)[C@H](O)[C@H](O)[C@]3(C)C(=CC[C@@H]4[C@@]5(C)CC[C@H](O[C@@H]6O[C@H](C(=O)O)[C@@H](O)[C@H](O)[C@H]6O[C@H]6O[C@H](C)[C@@H](O)[C@H](O)[C@@H]6O)C(C)(C)[C@@H]5CC[C@]43C)[C@@H]2CC1(C)C` (stereo not given in full), the IC50 (in experiment [1]; with HT-29) was 40 µg/mL (≈ 42 µM) throughout.

Turning to `C/C=C(/C)C(=O)O[C@H]1[C@H](O)C(C)(C)C[C@H]2C3=CC[C@@H]4[C@@]5(C)CC[C@H](O[C@@H]6O[C@H](C(=O)O)[C@@H](O)[C@H](O)[C@H]6O[C@H]6O[C@H](C)[C@@H](O)[C@H](O)[C@@H]6O)C(C)(C)[C@@H]5CC[C@@]4(C)[C@]3(C)[C@@H](O)[C@@H](O)[C@]21CO`, the 50% inhibitory concentration (IC50) (in experiment [1]; in the experiment with HT-29) was 40 µg/mL (≈ 43.9 µM) throughout.

On to `CC(=O)O[C@H]1C(=O)[C@@]2(C)[C@H]([C@H](OC(=O)c3ccccc3)[C@]3(O)C[C@H](OC(=O)[C@H](O)[C@@H](NC(=O)c4ccccc4)c4ccccc4)C(C)=C1C3(C)C)[C@]1(OC(C)=O)CO[C@@H]1C[C@@H]2O` [PACLITAXEL], for which the half-inhibitory concentration (IC50) in experiment [1] was found to be 0.008 µg/mL (≈ 0.00937 µM).

A word on the IC50: it is the midpoint of a concentration-inhibition curve. A low value points to inhibition by little substance.
